Residue numbers refer to the chain shown, from its start. “And” between values parts separate entries of the source, which are not always exact repeats. Identical values can stand only once.
Columns and labels:
C3aR R161^ECL2A = target: T1, C3aR R161^ECL2A (Homo sapiens, UniProt Q16581, R161A); test: GloSensor-based cAMP assay, C3aR mutant R161A; format: cell-based
T1 construct: expressed in transfected cells; host or cells: HEK293T
T1 sequence (Q16581 1-482 R161A): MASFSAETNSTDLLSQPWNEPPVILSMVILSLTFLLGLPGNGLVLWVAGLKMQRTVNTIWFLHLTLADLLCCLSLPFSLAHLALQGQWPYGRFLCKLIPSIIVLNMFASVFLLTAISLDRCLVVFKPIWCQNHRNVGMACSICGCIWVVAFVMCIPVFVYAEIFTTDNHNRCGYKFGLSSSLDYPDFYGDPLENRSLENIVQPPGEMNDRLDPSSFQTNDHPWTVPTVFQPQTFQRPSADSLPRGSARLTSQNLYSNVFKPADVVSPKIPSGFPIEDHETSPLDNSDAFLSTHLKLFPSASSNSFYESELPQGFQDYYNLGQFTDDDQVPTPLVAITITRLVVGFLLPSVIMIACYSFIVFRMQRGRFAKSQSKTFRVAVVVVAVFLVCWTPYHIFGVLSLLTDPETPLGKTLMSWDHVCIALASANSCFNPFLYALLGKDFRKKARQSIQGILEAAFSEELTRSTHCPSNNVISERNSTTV
Description: (§1) HEK293T cells were seeded on 6-well plates (NEST) and transfected with pGlosensor™-22F plasmids (Promega) and pcDNA3.1 plasmids encoding C3aR or its mutants an with N-terminal FLAG tag. After 48 h, cells were detached with Accutase solution (Sigma-Aldrich) and washed with PBS, and resuspended in assay buffer (CO2-independent medium with 0.5 mg mL^−1D-luciferin). 100,000–200,000 cells were seeded on 96-well white bottom plates (SPL) and incubated at 37 °C for 45 min followed by 45 min incubation at room temperature. After 90 min of incubation, basal luminescence signals were recorded. In total, 25 μl of test ligand with various concentrations and 1 μM Forskolin (Sigma-Aldrich) were treated to the cells and luminescence signals were measured by Tristar 2 LB 942 multimode reader (Berthold). […] Relative luminescence unit (%) was calculated with the signal of wells treated with vehicle as 0% and the signal of wells treated with 1 μM Forskolin as 100% (DiRaddo et al, [2014]). Nonlinear regression was performed using a three-parameter logistic equation.

C3aR [1] = target: T2, C3aR (Homo sapiens, UniProt Q16581); set-up: method as in Rowley et al, 2020; conditions: inhibition of C3a-induced calcium release and mast cell degranulation; ref Rowley et al, 2020; cited from earlier work
T2 sequence (Q16581 whole entry): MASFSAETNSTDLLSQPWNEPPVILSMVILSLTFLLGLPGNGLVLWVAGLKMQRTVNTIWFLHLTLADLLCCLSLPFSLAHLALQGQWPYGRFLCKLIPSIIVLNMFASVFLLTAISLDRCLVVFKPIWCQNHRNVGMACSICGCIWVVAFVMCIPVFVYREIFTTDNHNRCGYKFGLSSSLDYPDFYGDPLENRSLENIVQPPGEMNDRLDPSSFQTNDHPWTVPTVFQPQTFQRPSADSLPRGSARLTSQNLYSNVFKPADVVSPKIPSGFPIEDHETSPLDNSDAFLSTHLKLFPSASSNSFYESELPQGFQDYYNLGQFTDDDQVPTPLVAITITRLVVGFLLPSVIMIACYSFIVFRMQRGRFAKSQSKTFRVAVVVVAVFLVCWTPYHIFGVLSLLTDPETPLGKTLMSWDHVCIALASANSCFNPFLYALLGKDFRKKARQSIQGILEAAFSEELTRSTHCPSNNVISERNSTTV
T2 sequence (P63096 2-354 partner limits assumed): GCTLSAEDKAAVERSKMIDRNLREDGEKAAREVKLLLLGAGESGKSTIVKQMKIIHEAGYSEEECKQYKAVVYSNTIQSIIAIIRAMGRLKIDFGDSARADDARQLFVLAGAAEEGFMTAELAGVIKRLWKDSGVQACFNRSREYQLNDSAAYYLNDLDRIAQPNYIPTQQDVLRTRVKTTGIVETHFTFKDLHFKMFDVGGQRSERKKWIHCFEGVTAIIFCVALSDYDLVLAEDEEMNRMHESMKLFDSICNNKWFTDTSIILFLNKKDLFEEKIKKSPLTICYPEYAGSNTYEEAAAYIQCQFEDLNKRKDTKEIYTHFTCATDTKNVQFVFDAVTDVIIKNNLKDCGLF
T2 sequence (P62873 2-340 partner limits assumed): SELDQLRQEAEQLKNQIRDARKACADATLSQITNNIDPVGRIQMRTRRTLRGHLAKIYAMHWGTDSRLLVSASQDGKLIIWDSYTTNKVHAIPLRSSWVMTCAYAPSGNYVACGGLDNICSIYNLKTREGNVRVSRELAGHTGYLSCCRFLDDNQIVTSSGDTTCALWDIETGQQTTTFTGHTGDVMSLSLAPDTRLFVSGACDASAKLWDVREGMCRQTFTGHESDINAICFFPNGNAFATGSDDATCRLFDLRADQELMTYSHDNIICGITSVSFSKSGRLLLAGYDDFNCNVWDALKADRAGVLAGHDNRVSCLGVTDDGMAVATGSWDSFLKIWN
T2 sequence (P59768 2-68 partner limits assumed): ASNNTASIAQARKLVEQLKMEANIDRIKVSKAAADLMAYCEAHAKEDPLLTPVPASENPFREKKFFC

C3aR [2] = target: T2, C3aR; set-up: method as in Luo et al, 2025; conditions: human monocyte THP-1 cells, naturally express C3aR; ref Luo et al, 2025; cited from earlier work
C3aR [3] = test system: C3aR; set-up: method as in Luo et al, 2025; conditions: HEK293 cells; ref Luo et al, 2025; cited from earlier work
C3aR [4] = test system: C3aR; set-up: method as in Mathieu et al, 2005; Rodriguez et al, 2024; conditions: blockade of calcium influx attributed to β-arrestin mediated internalization; ref Mathieu et al, 2005; Rodriguez et al, 2024; cited from earlier work
C3aR Y393^6.51A = target: T3, C3aR Y393^6.51A (Homo sapiens, UniProt Q16581, Y393A); test: GloSensor-based cAMP assay, C3aR mutant Y393A; format: cell-based
T3 construct: expressed in transfected cells; host or cells: HEK293T
T3 sequence (Q16581 1-482 Y393A): T1 sequence (Q16581 1-482 R161A) with A161R, Y393A
Description: as §1

C3aR R340^5.42A = target: T4, C3aR R340^5.42A (Homo sapiens, UniProt Q16581, R340A); test: GloSensor-based cAMP assay, C3aR mutant R340A; format: cell-based
T4 construct: expressed in transfected cells; host or cells: HEK293T
T4 sequence (Q16581 1-482 R340A): T1 sequence (Q16581 1-482 R161A) with A161R, R340A
Description: as §1

[5] = Dunnett's multiple comparisons test, WT minus mutant

In the case of `Cc1cc(C(c2ccc(Cl)cc2)c2ccc(Cl)cc2)sc1C(=O)N[C@@H](CCCNC(=N)N)C(=O)O` [JR14a, reference compound], the “Mean Diff. of pIC50, WT vs. R161A” value (C3aR R161^ECL2A; [5]) is reported as -0.085, the IC50 (C3aR R161^ECL2A; IC50, R161^ECL2A, dose-response plot, Not calculated = entire loss of signaling) is reported as 2.28 nM and the remaining activity at 1 µM (C3aR R161^ECL2A; R161A, Log[JR14a (M)] -6, single replicates, read-out: cAMP response (% Forskolin)) is reported as 11.8%. For the same molecule, the remaining activity at 0.1 µM (C3aR R161^ECL2A; R161A, Log[JR14a (M)] -7, single replicates, read-out: cAMP response (% Forskolin)) was 13.6%, the remaining activity at 0.01 µM (C3aR R161^ECL2A; R161A, Log[JR14a (M)] -8, single replicates, read-out: cAMP response (% Forskolin)) was 41.3% and the remaining activity at 0.001 µM (C3aR R161^ECL2A; R161A, Log[JR14a (M)] -9, single replicates, read-out: cAMP response (% Forskolin)) was 79.3%. For the same molecule, the remaining activity at 0.0001 µM (C3aR R161^ECL2A; R161A, Log[JR14a (M)] -10, single replicates, read-out: cAMP response (% Forskolin)) was 99.1%, the remaining activity at 10 pM (C3aR R161^ECL2A; R161A, Log[JR14a (M)] -11, single replicates, read-out: cAMP response (% Forskolin)) was 108% and the “ΔpIC50 ± SE of Diff.” value (C3aR R161^ECL2A; R161^ECL2A relative to WT C3aR) was 0.09 ± 0.04. The “decrease in IC50 values vs WT” value (C3aR R161^ECL2A; R161^ECL2 to Ala, relatively mild effect on downstream signaling) was under 10 fold, the IC50 (C3aR R161^ECL2A; pIC50 (Replicate), R161^ECL2A, individual replicates) was 3.72 nM and 1.86 nM and 1.74 nM and the IC50 values (C3aR [1]) was “nanomolar range”. The “forskolin-induced cAMP production” value (C3aR [2]) was “inhibited forskolin-induced cAMP production in a dose-dependent manner”, the “forskolin-induced cAMP production” value (C3aR [3]) was “inhibited forskolin-induced cAMP production in a dose-dependent manner” and the “activity at C3aR” value (C3aR [4]) was “potent agonist”. It also gave an IC50 (C3aR Y393^6.51A; IC50, Y393^6.51A, dose-response plot) of 312 nM, a remaining activity at 1 µM (C3aR Y393^6.51A; Y393A, Log[JR14a (M)] -6, single replicates, read-out: cAMP response (% Forskolin)) of 21.8% and a remaining activity at 0.1 µM (C3aR Y393^6.51A; Y393A, Log[JR14a (M)] -7, single replicates, read-out: cAMP response (% Forskolin)) of 72.2%. For the same molecule, the remaining activity at 0.01 µM (C3aR Y393^6.51A; Y393A, Log[JR14a (M)] -8, single replicates, read-out: cAMP response (% Forskolin)) was 96.3%, the remaining activity at 0.0001 µM (C3aR Y393^6.51A; Y393A, Log[JR14a (M)] -10, single replicates, read-out: cAMP response (% Forskolin)) was 94.3% and the remaining activity at 10 pM (C3aR Y393^6.51A; Y393A, Log[JR14a (M)] -11, single replicates, read-out: cAMP response (% Forskolin)) was 93.5%. For the same molecule, the IC50 (C3aR Y393^6.51A; pIC50 (Replicate), Y393^6.51A, individual replicates) was 309 nM and 398 nM and 263 nM, the IC50 (C3aR Y393^6.51A; pIC50 ± SEM (Mean), Y393^6.51A, mean of independent experiments) was 316 nM and the “Mean Diff. of pIC50, WT vs. R340A” value (C3aR R340^5.42A; [5]) was 2.282. The IC50 (C3aR R340^5.42A; IC50, R340^5.42A, dose-response plot) was 478 nM, the remaining activity at 1 µM (C3aR R340^5.42A; R340A, Log[JR14a (M)] -6, single replicates, read-out: cAMP response (% Forskolin)) was 78.9% and the remaining activity at 0.1 µM (C3aR R340^5.42A; R340A, Log[JR14a (M)] -7, single replicates, read-out: cAMP response (% Forskolin)) was 99.9%. The remaining activity at 0.0001 µM (C3aR R340^5.42A; R340A, Log[JR14a (M)] -10, single replicates, read-out: cAMP response (% Forskolin)) was 105%, the remaining activity at 10 pM (C3aR R340^5.42A; R340A, Log[JR14a (M)] -11, single replicates, read-out: cAMP response (% Forskolin)) was 104% and the “ΔpIC50 ± SE of Diff.” value (C3aR R340^5.42A; R340^5.42A relative to WT C3aR) was -2.28 ± 0.14. It also gave an IC50 (C3aR R340^5.42A; pIC50 ± SEM (Mean), R340^5.42A, mean of independent experiments) of 537 nM.

Source: paper PMC12084609, “Structural insights into small-molecule agonist recognition and activation of complement receptor C3aR” (The EMBO Journal, 2025)
